Consider 7 compounds from patent US9040545B2, “Heterocyclyl pyrazolopyrimidine analogues as selective JAK inhibitors” (Cellzome Limited, priority 2010, dated 2015).

Molecules are shown by their SMILES.

A word on the IC50: it is the concentration that gives 50% inhibition.

One assay addresses T1, Aurora B (Homo sapiens, UniProt Q96GD4).
T1 construct: cell lysates from Jurkat cells (ATCC TIB-152) used; endogenous in cells; host or cells: Jurkat cells (ATCC TIB-152), treated with pervanadate
Briefly: Kinobeads assay, Aurora B. The assay is classed as binding. The settings on record: for IC50: lysate of pervanadate-treated Jurkat cells, read-out: Inhibition values (IC50) Aur B.

In the next assay the target is T2, Aurora A (Homo sapiens, UniProt O14965).
T2 construct: cell lysates from Jurkat cells (ATCC TIB-152) used; endogenous in cells; host or cells: Jurkat cells (ATCC TIB-152), treated with pervanadate
T2 sequence (O14965 1-403): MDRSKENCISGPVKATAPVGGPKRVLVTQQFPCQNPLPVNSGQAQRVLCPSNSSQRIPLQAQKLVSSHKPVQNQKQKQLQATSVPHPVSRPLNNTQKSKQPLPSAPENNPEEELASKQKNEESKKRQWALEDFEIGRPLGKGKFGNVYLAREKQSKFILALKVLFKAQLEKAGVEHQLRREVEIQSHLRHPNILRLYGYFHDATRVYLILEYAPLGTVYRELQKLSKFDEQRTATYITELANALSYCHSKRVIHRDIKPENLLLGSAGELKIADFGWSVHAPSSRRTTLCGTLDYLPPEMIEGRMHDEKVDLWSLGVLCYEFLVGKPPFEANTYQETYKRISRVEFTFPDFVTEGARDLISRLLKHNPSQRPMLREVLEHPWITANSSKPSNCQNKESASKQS
Nature of the assay: Kinobeads assay, Aurora A. The assay is classed as binding. The conditions noted are these: for IC50: lysate of pervanadate-treated Jurkat cells, read-out: Inhibition values (IC50) Aur A.

T1 sequence (Q96GD4 whole entry): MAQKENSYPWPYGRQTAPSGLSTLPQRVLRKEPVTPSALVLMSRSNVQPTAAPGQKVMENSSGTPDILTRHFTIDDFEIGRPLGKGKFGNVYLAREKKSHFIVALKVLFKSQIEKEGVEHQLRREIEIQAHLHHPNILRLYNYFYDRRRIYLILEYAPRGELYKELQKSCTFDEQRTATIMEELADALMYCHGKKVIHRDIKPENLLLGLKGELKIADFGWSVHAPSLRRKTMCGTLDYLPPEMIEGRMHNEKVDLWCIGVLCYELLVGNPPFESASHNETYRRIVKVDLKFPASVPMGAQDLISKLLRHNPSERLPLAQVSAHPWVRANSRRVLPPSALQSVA

On to `Cn1cc(Nc2ncc3cnn(Cc4cc(F)cc(C(=O)N5CCOCC5)c4)c3n2)cn1` [Example 79, (3-Fluoro-5-((6-((1-methyl-1H-pyrazol-4-yl)amino)-1H-pyrazolo[3,4-d]pyrimidin-1-yl)methyl)phenyl)(morpholino)methanone], for which, at Aurora B, the “JAK3/AurB Fold Selectivity” value is greater than 50 Fold and the IC50 fell in the range of 1000 to 10000 nM. Moreover, on Aurora A, the “JAK3/AurA Fold Selectivity” value was 10-50 Fold and the IC50 lay in the range of 100 to 1000 nM.

Turning to `O=C1CNCCN1c1cc(F)cc(Cn2ncc3cnc(Nc4cnn(CCO)c4)nc32)c1` [Example 63, 1-(3-Fluoro-5-((6-((1-(2-hydroxyethyl)-1H-pyrazol-4-yl)amino)-1H-pyrazolo[3,4-d]pyrimidin-1-yl)methyl)phenyl)piperazin-2-one], on Aurora B, the “JAK3/AurB Fold Selectivity” value is 3-10 Fold and the IC50 is less than 100 nM. Further, on Aurora A, the “JAK3/AurA Fold Selectivity” value was 10-50 Fold and the IC50 lay in the range of 100 to 1000 nM.

With `CN(C)CCCn1cc(Nc2ncc3cnn(Cc4c(F)ccc(N5CCOCC5=O)c4F)c3n2)cn1` [Example 75, 4-(3-((6-((1-(3-(Dimethylamino)propyl)-1H-pyrazol-4-yl)amino)-1H-pyrazolo[3,4-d]pyrimidin-1-yl)methyl)-2,4-difluorophenyl)morpholin-3-one], at Aurora B, the “JAK3/AurB Fold Selectivity” value is reported as 3-10 Fold and the 50% inhibitory concentration (IC50) was less than 100 nM. Also, at Aurora A, the “JAK3/AurA Fold Selectivity” value is reported as 10-50 Fold and the IC50 is 100 to 1000 nM.

For `Cn1cc(Nc2ncc3cnn(Cc4cc(F)cc(N5CCOCC5=O)c4)c3n2)cn1` [Example 52, 4-(3-Fluoro-5-((6-((1-methyl-1H-pyrazol-4-yl)amino)-1H-pyrazolo[3,4-d]pyrimidin-1-yl)methyl)phenyl)morpholin-3-one], at Aurora B, the “JAK3/AurB Fold Selectivity” value is on record as greater than 50 Fold and the IC50 was in the range of 1000 to 10000 nM. Further, at Aurora A, the “JAK3/AurA Fold Selectivity” value is reported as greater than 50 Fold and the concentration for half-maximal inhibition (IC50) fell in the range of 100 to 1000 nM.

Regarding `OCCn1cc(Nc2ncc3cnn(Cc4cc(N5CCOCC5)cc(F)c4F)c3n2)cn1` [Example 56, 2-(4-((1-(2,3-Difluoro-5-morpholinobenzyl)-1H-pyrazolo[3,4-d]pyrimidin-6-yl)amino)-1H-pyrazol-1-yl)ethanol], on Aurora B, the “JAK3/AurB Fold Selectivity” value was greater than 50 Fold and the IC50 fell in the range of 1000 to 10000 nM. For the same compound, at Aurora A, the “JAK3/AurA Fold Selectivity” value is reported as greater than 50 Fold and the IC50 lay within 1000 to 10000 nM.

Regarding `O=C1CNCCN1c1cccc(Cn2ncc3cnc(Nc4cnn(CCO)c4)nc32)c1` [Example 57, 1-(3-((6-((1-(2-Hydroxyethyl)-1H-pyrazol-4-yl)amino)-1H-pyrazolo[3,4-d]pyrimidin-1-yl)methyl)phenyl)piperazin-2-one], at Aurora B, the “JAK3/AurB Fold Selectivity” value was 10-50 Fold and the IC50 is 100 to 1000 nM. In addition, at Aurora A, the “JAK3/AurA Fold Selectivity” value is 10-50 Fold and the IC50 fell in the range of 100 to 1000 nM.

Turning to `O=C1COCCN1c1cc(F)cc(Cn2ncc3cnc(Nc4cn[nH]c4)nc32)c1` [Example 84, 4-(3-((6-((1H-Pyrazol-4-yl)amino)-1H-pyrazolo[3,4-d]pyrimidin-1-yl)methyl)-5-fluorophenyl)morpholin-3-one], on Aurora B, the “JAK3/AurB Fold Selectivity” value was 10-50 Fold and the IC50 fell in the range of 100 to 1000 nM. In addition, at Aurora A, the “JAK3/AurA Fold Selectivity” value is greater than 50 Fold and the IC50 lay within 100 to 1000 nM.
